Results on ten compounds are retold here after US10959984B2, “Methods for treating cancer with RORγ inhibitors” (THE REGENTS OF THE UNIVERSITY OF CALIFORNIA, priority 2015, dated 2021).

The test system of one assay is AR-positive PCa cells. The assay is described as follows: Prostate cancer cell growth and survival (cell viability / cell growth). Format: cell-based, human. Particulars: for inhibition of AR-positive PCa cell growth and survival: different cell line models; for growth-inhibitory effect in prostate cancer cells: cell viability, 4 d (FIGS. 7B, 7C). The method, then: (§1) For cell viability, cells were seeded in 96-well plates at 1500-2500 cells per well (optimum density for growth) in a total volume of 100 μl media. Serially diluted compounds in […] of media were added to the cells 12 hours later. After 4 days of incubation, Cell-Titer GLO reagents (Promega) were added and luminescence was measured on GLOMAX microplate luminometer (Promega), according to the manufacturer's instructions. All experimental points were set up as sextuplicate as biological replication and the entire experiments were repeated three times. The data are presented as percentage of viable cells with vehicle treated cells set as 100. The estimated in vitro IC50 values were calculated using GraphPad Prism 6 software.
(§2) For apoptosis, Terminal deoxynucleotidyl transferase-mediated dUTP nick end labeling (TUNEL) was performed by using in situ cell death detection kit (Roche) as previously described^56. The results are expressed as a percentage of apoptotic cell number/total cell number. Caspase-3/7 activity was measured using a luminescent caspase-Glo 3/7 assay kit (Promega Corporation, Madison, USA) following the manufacturer's instructions. For cell growth, cells were seeded in 6-well plates at 2×10^5 per well and treated as indicated. Total viable cell numbers were counted using a Coulter cell counter. For colony formation, 800 cells were seeded in a well of 6-well plates and cultured for 14 days with the medium changed every 3 days. When the cell clone grew visible, the medium was removed and the cells were fixed with […] formalin for 10 minutes. Then the plates were washed with PBS for two times and the cell colonies were stained with 0.2% crystal violet (in 10% formalin) for 15 minutes. The numbers of cell colonies were counted after washed 5 times by PBS. The above assays were performed in triplicates and the entire experiments were repeated three times.

In another assay the test system is AR-negative PCa cells. The assay is described as follows: Prostate cancer cell growth and survival, AR-negative cells. Format: cell-based, human. Here is the method: as §1, §2
In a further assay the test system is breast cancer cells. The assay is described as follows: CellTiter-GLO viability, breast cancer cells. Format: cell-based, human. Here is the method:
as §1
(§3) Using a CellTiter-GLO assay, the viability of cells of different cancer types was measured after treatment with different concentrations of RORγ small molecule inhibitors for 4 days.
Background: In ATP-based viability assays light output follows the ATP content of the culture.

Assay [1] has as its system OVCAR420, T24, ECC1, HepG2, Hep3B, T98G, SUDHL4, SUDHL6, HCT116 and docetaxel-resistant C4-2B cells. The assay is described as follows: CellTiter-GLO viability, cells of other cancer types. Format: cell-based, human. Particulars: ovarian OVCAR420, bladder T24, endometrial ECC1, liver HepG2 and Hep3B, glioblastoma T98G, DLBCL SUDHL4 and SUDHL6, colon HCT116, docetaxel-resistant C4-2B; 4 days. The method, then: as §1, §3

Another assay has as its system AR. The assay is described as follows: ARE reporter gene assay (5xARE-tk-luc) in 22Rv1 cells. The assay is classed as cell-based, human. Here is the method:
Transient transfection and reporter gene assays were performed as previously described^49 with the following modifications. ARE reporter gene assays were performed by transfecting 22Rv1 cells with 5×ARE-tk-luc, pcDNA3.1-hAR and pCMV-β-gal for normalization. For transfection with constructs omitted for specific gene expression, corresponding empty vectors were used to ensure equal amount of total DNA used. Briefly, 22Rv1 cells seeded in 96-well plates in hormone-deprived medium supplemented with 10% cds-FBS (Hyclone) were transfected with lipofectamine 2000 (Life technology, Carlsbad, Calif., USA) and the indicated plasmid DNA. Cells were then treated at 12 hours after transfection with 3 nm R1881, indicated concentrations of RORγ antagonists or ENZ for another 24 hours before harvested for β-gal and luciferase assays. For RORE reporter gene assays, 4×AR-RORE-tk-luc was constructed by inserting four copies of the newly identified AR-RORE TTCTGGGTCA (SEQ ID NO: 1) into tk-luciferase reporter vector. AR-RORE mutant form (AR-RORE mut) contains sequences mutated from TTCTGGGTCA (SEQ ID NO: 1) to TTCTGAACGA (SEQ ID NO: 2). […] The luciferase and β-galactosidase were then analyzed with a Luciferase Assay Substrate (Promega) and Luminescent β-galactosidase Detection Kit II (Clontech). […]
In general terms: In a reporter assay the amount or activity of a reporter protein is the signal.

The next assay relates to AR and AR-V7. Put plainly: AR and AR variant expression (immunoblotting, qRT-PCR). The assay is classed as cell-based, human. Here is the method:
Total RNA was isolated from cells in 6-well or 10-cm plates or from xenograft tumors, and the cDNA was prepared, amplified and measured in the presence of SYBR as previously^49. Briefly, the fluorescent values were collected and a melting curve analysis was performed. Fold difference was calculated as described previously^49. The experiments were performed at least three times with data presented as mean values±s.d. Cell lysates were analyzed by immunoblotting with antibodies specifically recognizing RORγ, AR, AR-V7 and the indicated proteins. The PCR primers and all the antibodies used in this study are described in the Tables 3 and 4.

The subject of a further assay is 22Rv1 xenografts. Put plainly: 22Rv1 xenograft tumor growth. Format: in vivo, mice. The method, then:
Four-week-old male SCID C.B17 mice (for C4-2B and VCaP) or BALB/c nu/nu athymic mice (for 22Rv11 and PC-3) were purchased from Harlan Inc. For establishing tumors, 2×10^6 cells were suspended in total of 100 μL PBS/Matrigel (1:1) and implanted subcutaneously into the dorsal flank on both sides of the mice. Animal group size of six or more was estimated to have a high statistic power, based on power calculation (http://www.biomath.info/power/) and previous studies involving the same xenograft models^34,68. When the tumor volume was approximately 80 mm^3, the mice were randomized and then treated intraperitoneally (i.p.) with 100 μl of either vehicle or RORγ antagonists SR2211, XY011/8k (in a formulation of 15% Cremophor EL, Calbiochem, 82.5% PBS, and 2.5% DMSO) for five times per week. Tumor growth was monitored by calipers with volume calculated using the equation: (π/6 (length×width2)). Body weight during the course of the study was also monitored. At the end of the studies mice were killed and tumors were dissected and weighed. Additionally, prostate, seminal vesicle, testis, kidney, heart, lung, liver, epididymal fat pad and spleen were harvested and weighed. To assess the effect of combining RORγ antagonists and ENZ on the growth of castrated-resistant VCaP xenografts (CRPC-VCaP), first, SCID C.B17 mice were injected with VCaP cells as above to establish the tumors. Then, mice bearing tumors of approximately 180 mm^3 were surgically castrated. They were then observed for tumor regression. Once tumors grew back to the pre-castration size, mice were randomized and treated with vehicle, 5 mg kg^−1 SR2211, 10 mg […] ENZ or a combination of 5 mg kg^−1 SR2211 and 10 mg kg^−1 ENZ. ENZ was given by oral gavage as previously described^68 and SR2211 was administered i.p as above. Mice were excluded from the study if bearing no tumor or tumor with size twice larger or smaller than the mean, at the time of randomization.

The next assay concerns MCF-7-TamR cell line. The assay is described as follows: Growth of tamoxifen-resistant breast cancer cells. Format: cell-based, human. Here is the method:
as §3

Entries after “also recorded” stand apart in the source; their conditions may differ.

Regarding `CCN1C(=O)c2cccc3c(S(=O)(=O)Nc4ccc5ccncc5c4)ccc1c23` [6f, 1-Ethyl-N-(isoquinolin-7′-yl)-2-oxo-1,2-dihydrobenzo[cd]indole-6-sulfonamide], the “inhibition of AR-positive PCa cell growth and survival” value in the assay with AR-positive PCa cells was “potent inhibition of AR-positive PCa cell growth and survival”. In addition, the “inhibition of cell growth and survival in AR-negative cells” value (shortened to “inhibition of cell growth and survival”) with AR-negative PCa cells is “not in the AR-negative cells”.

On to `CCN1C(=O)c2cccc3c(S(=O)(=O)Nc4ccc(/N=N/c5ccccc5)cc4)ccc1c23` [7k, (E)-1-ethyl-2-oxo-N-(4′-(phenyldiazenyl)phenyl)-1,2-dihydrobenzo[cd]indole-6-sulfonamide], for which, in the assay on AR-positive PCa cells, the “inhibition of AR-positive PCa cell growth and survival” value was “potent inhibition of AR-positive PCa cell growth and survival”. The “inhibition of cell growth and survival” value with AR-negative PCa cells is on record as “not in the AR-negative cells”.

For `CC(=O)N1CCN(c2ccc(CN3[C@@H](C)CC[C@H](c4ccccc4)S3(=O)=O)c(F)c2)CC1` [GNE3500], the “growth and survival of different breast cancer cells” value in the assay on breast cancer cells (HER2-positive HCC1954, TNBC MDA-MB468 and MDA-MB231, radiation-resistant MCF-7-C6) is recorded as “significant inhibition”.

For `NS(=O)(=O)c1ccc(CC(=O)Nc2cc(Cl)c(-c3ccccc3OC(F)(F)F)c(Cl)c2)cc1` [GSK9b, N-(2,6-dichloro-2′-trifluoromethoxy)-[1,1′-biphenyl]-4-yl-2-(4-sulfamoylphenyl)acetamide], the “growth and survival of breast cancer cells” value in the assay on breast cancer cells (cells having different major molecular features, 4 days) was “strongly inhibited the growth and survival of breast cancer cells; also recorded: slightly less effective than GSK805”. Also, the “growth and survival of cancer cells of other types” value in assay [1] is “significant inhibition of the growth and survival”.

For the compound `C[C@]1(O)CC[C@H]2[C@@H]3CCC4=CC(=O)CCC4=C3C=C[C@@]21C` [R1881], in the assay on AR, the “response of multimerized ARE-driven reporter” value is on record as “activated”.

As for `CC(=O)N1CCN(Cc2ccc(-c3ccc(C(O)(C(F)(F)F)C(F)(F)F)cc3)cc2)CC1.Cl` [SR1555, 1-(4-((4′-(1,1,1,3,3,3-hexafluoro-2-hydroxypropan-2-yl)-[1,1′-biphenyl]-4-yl)methyl)piperazin-1-yl)ethanone, monohydrochloride], in the assay with AR-positive PCa cells, the “growth-inhibitory effect in prostate cancer cells” value is given as “significant inhibitory effects with slightly lower potencies”; the “inhibition of AR-positive PCa cell growth and survival” value is “potent inhibition of AR-positive PCa cell growth and survival”. Further, the “inhibition of cell growth and survival” value with AR-negative PCa cells is reported as “not in the AR-negative cells”.

`CCN1C(=O)c2cccc3c(S(=O)(=O)Nc4ccc(OC)c(OC)c4)ccc1c23` [XY011, N-(3′,4′-dimethoxyphenyl)-1-ethyl-2-oxo-1,2-dihydrobenzo[cd]indole-6-sulfonamide]: in the assay with AR-positive PCa cells, the “inhibition of AR-positive PCa cell growth and survival” value was “potent inhibition of AR-positive PCa cell growth and survival”. Besides, in the assay on AR-negative PCa cells, the “inhibition of cell growth and survival” value is “not in the AR-negative cells”. The “expression of AR and AR-V7” value in the assay on AR and AR-V7 (C4-2B and VCaP cells, 72 h) is “potently inhibited the expression of AR and AR-V7 in a dose-dependent manner”. Also, the tumor growth inhibition result in the assay on 22Rv1 xenografts (XY011 20 mg/kg, i.p., 5 times a week (FIG. 23B)) is on record as “Strong tumor growth inhibition”. Also, the “growth of xenograft tumors” value with 22Rv1 xenografts (nude mice, SR2211 5 mg/kg i.p., 8k/E11 10 and 20 mg/kg i.p., five times per week (FIG. 3A)) was “strongly inhibited growth of xenograft tumors”.

Regarding `C[C@]12CC[C@H](O)C[C@H]1CC[C@@H]1[C@@H]2CC[C@]2(C)[C@@H](c3ccc(=O)oc3)CC[C@]12O` [bufalin], in the assay on AR and AR-V7 (C4-2B cells treated with bufalin), the AR expression result was “dose-dependent inhibition of AR expression”.

For the compound `CC/C(=C(\c1ccccc1)c1ccc(OCCN(C)C)cc1)c1ccccc1` [tamoxifen], the “growth inhibitory effect of tamoxifen alone” value in the assay on MCF-7-TamR cell line (MCF-7-TamR, 1 μM of 4(OH)-tamoxifen) is reported as “did not show any inhibitory effect”. The “growth inhibitory effect of tamoxifen in combination with RORγ inhibitors” value in the assay with MCF-7-TamR cell line (tamoxifen-resistant breast cancer cells, combined with SR2211 or GSK805) was “synergistic growth inhibitory effect”.

Take SR3335: in the assay with AR-positive PCa cells, the “growth-inhibitory effect in prostate cancer cells” value is on record as “did not display any significant effect”; the “inhibition of AR-positive PCa cell growth and survival” value is “did not show any significant growth inhibition”.
